Earlier results as cited in patent US20130164335A1, “METHODS AND COMPOSITIONS FOR CELLULAR DRUG RELEASE” (NATIONAL HEALTH RESEARCH INSTITUTES, priority 2011, published 2013).

Details: after the first dosage; from a report

## Cc1cc2c(s1)Nc1ccccc1N=C2N1CCN(C)CC1 [OLZ, Olanzapine]
  time to reach steady-state: one week
